Columns and labels:
[1] = test system: MCF-7 breast cancer cells; assay: Mouse xenograft efficacy in an MCF-7 breast cancer model; type: in vivo; settings: 150 or 100 mg/kg/1×wk; FIG. 8
Protocol: Mouse Xenograft Efficacy Data in an MCF-7 Breast Cancer Model
MCF-7 breast cancer cells were purchased from ATCC. […] Fetal bovine serum was then added to the medium. The final concentration of fetal bovine serum was 10%. Cells were cultured at 37° C. and 5% CO2.
Mice that were not put on treatment were euthanized. Animals were sourced through CRL (Wilmington, Mass.).

[2] = mouse, in vivo
Protocol: (§1) Tissue Distribution Extraction Procedure for SDC-TRAP Tumor Samples
(§2) A 150 ng/mL solution of SDC-TRAP-0002 in methanol was prepared using an internal spiking solution (500 μg/mL SDC-TRAP-0002 in DMSO). Using the 10 mM stock solutions of the SDC-TRAP molecule and its Hsp90i binding moiety and effector moiety in DMSO, spiking solutions were prepared at 0.025, 0.05, 0.1, 0.5, 1, 5, 10, 50, 100, 250, and 500 μM in DMSO. 5 μL of each spiking solution was added to a 96-deep well plate.
(§3) Quality control standards were prepared from 5 μL of 0.1, 1, and 10 μM calibration standard spiking solution added in triplicate into 96-deep well plate and adding 50 μL of matrix (plasma or homogenized tumor).
(§4) To prepare test samples, test plasma was diluted as needed using blank plasma. Tumor samples were pulverized in liquid nitrogen, weighed, and homogenized in PBS at 5× volume to sample weight. 50 μL of unknown plasma or homogenized tumor sample was mixed with 5 μL of DMSO. The samples were extracted by precipitating calibration standards, QC standards, and unknown samples with 200 μL of internal standard solution. The samples were mixed by vortex at room temperature for approximately 1.5 minutes, then centrifuge at 2-8° C. 150 μL of supernatant was collected and 25 μL of water added. Samples were mixed and analyzed by LC-MS/MS.
(§5) Samples of plasma, heart and tumor were excised from a euthanized mouse, homogenized in PBS at 5 times tissue weight and diluted in 5 μL DMSO/50 μL sample. Prior to analysis, 55 μL samples and calibration standards were precipitated in 200 μL methanol in 96-well plates. Samples were mixed on a vortex mixer for 1.5 minutes at 1500 rpm at room temperature, then centrifuged at 4400 rpm for 10 minutes at 8° C. 150 μL of each supernatant was transferred to a well of a new 96-well plate, and 25 μL of water was added and mixed with the sample. […] For the analysis of samples from female SCID mice, a gradient of solvent A (water/0.1% formic acid) and B (acetonitrile/0.1% formic acid) was used as in Table A below.

in vivo = settings: mouse
Protocol: as §1, §2, §3, §4, §5

[3] = Mouse plasma stability (Examples 16-18); type: in vitro ADME
Protocol: Plasma Stability Protocol for SDC-TRAP Compounds
This solution was used to precipitate all plasma samples in the study. 200 μL was pipetted into a 96 deepwell plate over dry ice. 10 μL of 1 mM stock in DMSO was added to a 1.5 mL microfuge tube, then 990 μL of plasma. Samples were mixed by vortex, then 50 μL of each sample was added in triplicate to a 96-well plate containing internal standard solution. This was designated the 0 hour time point sample. 250 μL of the remaining plasma sample was added to each of four 96 deepwell plates—one per time point. Samples were incubated at 37° C. with gentle shaking for 0.25, 0.5, and 1 hour. After each time point, one plate of each sample was removed from the shaker and placed on wet ice for approximately 2 minutes. 50 μL plasma aliquots (in triplicate) were added to the deepwell plate containing internal standard solution. After the last time point was extracted, the 96 deepwell plate was vortexed, then centrifuged at 2-8° C. 150 μL of supernatant was collected and 25 μL of water was added. Samples were mixed and analyzed by LC-MS/MS.
The stability of seven SDC-TRAP types in mouse plasma was measured as follows. […] Each sample was mixed and divided into 250 μL aliquots, each representing time points 0, 15 minutes, 30 minutes or 1 hour. […]

[4] = Stability in cell culture media (Example 18); type: in vitro ADME
Protocol: SDC-TRAP Stability in Mouse Plasma and Cell Culture Media
Mouse plasma samples were prepared according to Example 16.

[5] = test system: human breast cancer cell line BT-474; assay: Cytotoxicity assay with cancer cell lines, BT-474 (Example 13); type: cell-based; settings: BT-474, 72 h, read-out: Cytotoxicity (IC50, nM) BT-474
Protocol: (§6) Cytotoxicity Assay with Cancer Cell Lines
(§7) Cytotoxicity of SDC-TRAP molecules was determined in three cancer cell lines. […] 80 μL of CellTiter-Glo was added to each well, followed by room temperature incubation in the dark for 15 minutes. Cell was determined by luminescence. IC50 was calculated using XLfit™ software.

[6] = test system: human urinary bladder cancer cell line RT-112; assay: Cytotoxicity assay with cancer cell lines, RT-112 (Example 13); type: cell-based; settings: RT-112, 72 h, read-out: Cytotoxicity (IC50, nM) RT-112
Protocol: as §6, §7

[7] = test system: human urinary bladder cancer cell line SW780; assay: Cytotoxicity assay with cancer cell lines, SW780 (Example 13); type: cell-based; settings: SW780, 72 h, read-out: Cytotoxicity (IC50, nM) SW-780
Protocol: as §6, §7

[8] = Artificial membrane permeability assay (PAMPA) (Example 36); type: in vitro ADME
Protocol: In order to test the ability SDC-TRAP molecules of the invention to enter cells, an artificial membrane permeability assay (“PAMPA”) was used. […] LC/MS was used in conjunction with PAMPA assays to determine the ability of the SDC-TRAP molecules of the invention to permeate cells.
Pre-coated PAMPA plates were warmed to room temperature for at least 30 minutes prior to adding assay components.
Stock solutions were prepared with the SDC-TRAP molecules to be tested. In order to make a working solution, either 50 μL of 100 μM Stock in DMSO+950 μL of PBS or 50 μL of 200 μM stock was added to 96 deep well plate, resulting in a 5 μM final concentration or a 10 μM final concentration, respectively. 300 μL of the working solution containing each compound to be tested was added to the appropriate well of a donor PAMPA plate. 200 μL of PBS was added into the corresponding wells of an acceptor PAMPA plates.
The acceptor plate was lowered onto the donor plate and allowed to incubate for five hours. After five hours, a 50 μL aliquot was removed from each well of each plate and added into a new 96 deep-well plate.
100 μL of methanol containing an internal standard was added to each aliquot and analyzed by LC/MS. The internal standard was 150 ng/ml SDC-TRAP-0002.
In order to calculate the permeability for each SDC-TRAP molecule and the control molecules, the following formula was used:

[9] = Tissue distribution of ganetespib in female CD-1 nu/nu mice bearing RERF human NSCLC xenografts; type: in vivo, mouse; settings: 24 hr after 50 mg/kg IV
Source text: Tissue distribution of ganetespib in female CD-1 nu/nu mice bearing RERF human NSCLC xenografts
To confirm the distribution of ganetespib in blood, livers, kidneys, brains, hearts, lungs and tumors after IV administration of ganetespib to female CD-1 nu/nu mice bearing RERF human NSCLC xenografts, and to examine metabolic profiles of ganetespib in plasma, red blood cells, and above tissues.
Animals: female CD-1 nu/nu mice bearing RERF human NSCLC xenografts (N=3/group)
Formulation: 10% DMSO, 18% Cremophor RH40, 3.6% dextrose solution (DRD)
Bleeding time points: 5 min, 6, 24 hr
Collected tissues: blood (plasma and red blood cells (RBC)), liver, kidneys, brain, heart, lung, tumor
Protein precipitation: 50 μL of 10 times diluted plasma or RBC+150 μL ACN (10 mM NH4OAc), vortexed and centrifuged at 10000 rpm for 8 min; 150 μL supernatant+150 μL water (10 mM NH4OAc)
Protein precipitation: 100 μL homogenized tissue (1:3 tissue: PBS buffer)+100 μL ACN (10 mM NH4OAc), vortexed and centrifuged at 10000 rpm for 8 min Bioanalysis

HER2 = HER2 degradation in BT-474 cells (Example 3, Western blot / in-cell imaging); type: cell-based, human; settings: Homo sapiens, BT-474; read-out: IC50 of in vitro HER2 assays
Protocol: BT-474 cells are plated in the interior 60 wells of a 96 well black clear bottom plate (20,000 cells/well) in DMEM medium, with DMEM media in the surrounding 36 wells, and incubated at 37° C. with 5% CO2 overnight. On the second day, concentration response curve source plates are produced (10 point, 3-fold dilution of compounds in DMSO) followed by a 1:30 dilution in an intermediate dilution plate containing DMEM. Compound is transferred from the intermediate plate to the cell plate at a dilution of 1:10.
Cells are then fixed in 4% phosphate-buffered paraformaldehyde for 30 minutes at room temperature and then permeabilized by washing five times with 0.1% Triton X-100 in PBS for 5 minutes at room temperature on a shaker. […] Cells are washed 5 times with 0.1% Tween-20 in PBS for 5 minutes at room temperature on a shaker and imaged on a LI-COR Odyssey imaging station. The raw data is normalized to DRAQ5 and the HER2 EC50 is calculated using XLfit™.

SMILES	tumor growth suppression (tumor volume) [1]	tumor targeting (tissue distribution, in words) [2]	concentration at 6 h (in vivo; Plasma Conc.) [nM]	concentration at 24 h (in vivo; Plasma Conc.) [nM]	Kp at 6 h (in vivo; Tumor/Plasma Ratio)	Kp at 24 h (in vivo; Tumor/Plasma Ratio)	Kp at […] (in vivo; Tumor/Plasma Ratio)	Mouse (10 μM) % Remaining 1 h (37° C.)* [3] [%]	Media (5 μM) % Remaining 1 h (37° C.)* ([4]; 1 h) [%]	Media (5 μM) % Remaining 19 h (37° C.) ([4]; 19 h) [%]	IC50 [5] [nM]	IC50 [6] [nM]	IC50 [7] [nM]	Mass Retention ([8]; incubation 5 h, the 55th table) [%]	Papp at 5 h ([8]; incubation 5 h, the 55th table) [×10⁻⁶ cm/s]	Mass Retention ([8]; same protocol, the 56th table) [%]	Papp at 5 h ([8]; same protocol, the 56th table) [×10⁻⁶ cm/s]	Kp at 1 h (in vivo; Tumor/Plasma Ratio)	Concentration of ganetespib in plasma [9]	IC50 (HER2) [nM]
CCc1c2c(nc3ccc(OC(=O)N4CCC(CCn5ccc6cc(-n7c(O)nnc7-c7cc(C(C)C)c(O)cc7O)ccc65)CC4)cc13)-c1cc3c(c(=O)n1C2)COC(=O)[C@]3(O)CC [SDC-TRAP-0063, 4,11-diethyl-4-hydroxy-3,14-dioxo-3,4,12,14-tetrahydro-1H-pyrano[3′,4′:6,7]indolizino[1,2-b]quinolin-9-yl 4-(2-(5-(3-(2,4-dihydroxy-5-isopropylphenyl)-5-hydroxy-4H-1,2,4-triazol-4-yl)-1H-indol-1-yl)ethyl)piperidine-1-carboxylate]	greater tumor growth suppression than effector moiety irinotecan alone	selectively targets and accumulates in tumor cells	1690	6.75	0.958	30.1	0.0122													
CCc1c2c(cc3ccc(O)cc13)-c1cc3c(c(=O)n1C2)COC(=O)[C@]3(O)CC [SN-38]							0.01	64	82	52	> 10000	< 10	38	38.2	0.643	46.6	1.87	0.07		
CC(C)c1cc(-c2n[nH]c(=O)n2-c2ccc3c(ccn3C)c2)c(O)cc1O [ganetespib, reference compound]																			<LLOQ	~30

Reference: patent publication US9956293B2, “Targeted therapeutics” (Madrigal Pharmaceuticals, Inc., priority 2014, dated 2018)
